Target: T1, human parathyroid cell Ca^2+ receptor (hPCaR) (Homo sapiens, UniProt P41180)
T1 construct: expressed in transfected cells
T1 sequence (P41180 20-1078): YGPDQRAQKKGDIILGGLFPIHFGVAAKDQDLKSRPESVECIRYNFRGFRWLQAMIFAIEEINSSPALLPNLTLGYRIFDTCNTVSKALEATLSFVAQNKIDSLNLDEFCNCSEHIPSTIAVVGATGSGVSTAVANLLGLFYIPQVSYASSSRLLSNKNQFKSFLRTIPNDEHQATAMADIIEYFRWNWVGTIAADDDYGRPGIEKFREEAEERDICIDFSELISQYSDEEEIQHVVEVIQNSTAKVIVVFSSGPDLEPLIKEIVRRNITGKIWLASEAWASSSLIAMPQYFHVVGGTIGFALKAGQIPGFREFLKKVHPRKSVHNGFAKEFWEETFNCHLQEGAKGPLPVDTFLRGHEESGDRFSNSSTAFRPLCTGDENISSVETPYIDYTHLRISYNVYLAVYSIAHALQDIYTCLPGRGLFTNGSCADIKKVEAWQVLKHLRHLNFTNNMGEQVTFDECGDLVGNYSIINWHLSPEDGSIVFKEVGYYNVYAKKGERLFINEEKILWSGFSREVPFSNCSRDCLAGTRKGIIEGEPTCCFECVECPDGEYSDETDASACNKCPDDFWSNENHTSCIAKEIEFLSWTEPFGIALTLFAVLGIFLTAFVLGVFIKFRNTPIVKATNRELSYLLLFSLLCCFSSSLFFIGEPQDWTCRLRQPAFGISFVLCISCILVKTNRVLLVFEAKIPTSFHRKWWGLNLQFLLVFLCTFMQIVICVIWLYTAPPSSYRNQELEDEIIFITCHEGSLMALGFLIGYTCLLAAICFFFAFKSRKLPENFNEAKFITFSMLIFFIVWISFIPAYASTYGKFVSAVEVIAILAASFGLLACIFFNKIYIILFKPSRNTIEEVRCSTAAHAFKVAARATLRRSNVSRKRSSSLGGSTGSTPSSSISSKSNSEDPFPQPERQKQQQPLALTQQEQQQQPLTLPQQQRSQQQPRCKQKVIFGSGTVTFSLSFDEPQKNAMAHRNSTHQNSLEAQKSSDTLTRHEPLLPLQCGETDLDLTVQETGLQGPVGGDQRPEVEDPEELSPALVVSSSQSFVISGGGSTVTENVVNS
Experiment: [Ca2+]i measurement with fluo-3 in HEK 293 4.0-7 cells stably transfected with hPCaR
Type: cell-based
Conditions: fluo-3 fluorescence (485/530 nm), effect on [Ca^2+]i
Protocol: The activities of the compounds of the present invention on calcium receptors were measured. In one embodiment, the measurement was performed in accordance with the method described in Example 4 of Nemeth et al., PCT/US95/13704 (International Publication No. WO96/12697) herein incorporated by reference.
A 4.0-kb NotI-HindIII fragment of the human parathyroid cell Ca^2+ receptor (hPCaR) cDNA was subcloned into the mammalian expression vector pCEP4 (Invitrogen) containing the hygromycin-resistant gene as a selectable marker. This plasmid was transfected into HEK 293 cells by calcium phosphate precipitation. Transfected cells were grown in Dulbecco's modified Eagle's medium containing 10% fetal bovine serum and hygromycin (200 μg/mL). Hygromycin-resistant colonies were subcloned and assayed for hPCaR mRNA by solution hybridization using a ^32P-labeled RNA probe complementary to the (4.0 kb) hPCaR sequence (Garrett, et al., J. Biol. Chem. 270, 12919-12925 (1995)). Clone 7 was used to assess the effects of compounds on [Ca^2+]i. This stably transfected cell line is termed HEK 293 4.0-7. For measurements of [Ca^2+]i, the cells were recovered from tissue culture flasks by brief treatment with 0.02% EDTA and then washed and resuspended in PCB containing 1 mM CaCl2 and 0.1% Bovine Serum Albumin (“BSA”). The cells were loaded with fluo-3 by incubation for 30 min at 37° C., with parathyroid cell buffer (126 mM NaCl, 4 mM KCl, 1 mM MgSO4, 0.7 mM K2HPO/KH2PO4, 20 mM HEPES.NaOH (pH 7.45)) containing 0.5% BSA in lmM CaCl2 and 2 μM fluo-3 acetoxymethyl ester. The cells were subsequently washed, each test compound was added to the cells and the fluorescence was recorded by using excitation and emission wavelengths of 485 and 530 nm, respectively.

Compound | EC50
COc1ccc(CNC(C)c2cccc(N(C)C)c2)cc1-c1ccc(C(F)(F)F)cc1 (stereo not shown) | ≤ 10 µM
COc1cccc([C@@H](C)NCc2ccc(OC)c(-c3csc(N4CCCCC4)n3)c2)c1 | ≤ 10 µM
COc1cccc([C@@H](C)NCc2ccc(OC)c(-c3ccc4oc(C)nc4c3)c2)c1 | ≤ 10 µM
COc1ccc(CN[C@H](C)c2cccc3ccccc23)cc1-c1ccc(C(F)(F)F)nc1 | ≤ 10 µM
COc1ccc(CN[C@H](C)c2cccc(C#N)c2)cc1-c1ccc(C(F)(F)F)cc1 (stereo in doubt) [3-(1-(((6-(methyloxy)-4′-(trifluoromethyl)-1,1′-biphenyl-3-yl)methyl)amino)ethyl)benzonitrile] | ≤ 10 µM
COc1ccc(CNC(C)c2cccc(Cl)c2Cl)cc1-c1ccc(C(F)(F)F)cc1 (stereo not shown) [1-(2,3-dichlorophenyl)-N-((6-(methyloxy)-4′-(trifluoromethyl)-1,1′-biphenyl-3-yl)methyl)ethanamine] | ≤ 10 µM
COCCn1cc(-c2cc(CN[C@H](C)c3cccc4ccccc34)ccc2OC)ccc1=O [1-(2-(methyloxy)ethyl)-5-(2-(methyloxy)-5-((((1R)-1-(1-naphthalenyl)ethyl)amino)methyl)phenyl)-2(1H)-pyridinone] | ≤ 10 µM
COCCn1cc(-c2cc(CN[C@H](C)c3cccc(OC)c3)ccc2OC)ccc1=O [1-(2-(methyloxy)ethyl)-5-(2-(methyloxy)-5-((((1R)-1-(3-(methyloxy)phenyl)ethyl)amino)methyl)phenyl)-2-(1H)-pyridinone] | ≤ 10 µM
COc1ccc(CNC(C)c2cc(F)cc(F)c2)cc1-c1ccc(C(F)(F)F)cc1 (stereo not shown) [1-(3,5-difluorophenyl)-N-((6-(methyloxy)-4′-(trifluoromethyl)-1,1′-biphenyl-3-yl)methyl)ethanamine] | ≤ 10 µM
COc1ccc(CNC(C)c2cccc(Br)c2)cc1-c1ccc(C(F)(F)F)cc1 (stereo not shown) [1-(3-bromophenyl)-N-((6-(methyloxy)-4′-(trifluoromethyl)-1,1′-biphenyl-3-yl)methyl)ethanamine] | ≤ 10 µM
COc1ccc(CNC(C)c2cccc(F)c2)cc1-c1ccc(C(F)(F)F)cc1 (stereo not shown) [1-(3-fluorophenyl)-N-((6-(methyloxy)-4′-(trifluoromethyl)-1,1′-biphenyl-3-yl)methyl)ethanamine] | ≤ 10 µM
COc1ccc(CNC(C)c2ccc(F)cc2)cc1-c1ccc(C(F)(F)F)cc1 (stereo not shown) [1-(4-fluorophenyl)-N-((6-(methyloxy)-4′-(trifluoromethyl)-1,1′-biphenyl-3-yl)methyl)ethanamine] | ≤ 10 µM
COc1ccc(CN[C@H](C)c2cccc3ccccc23)cc1-c1ccc(=O)n(C)c1 [1-methyl-5-(2-(methyloxy)-5-((((1R)-1-(1-naphthalenyl)ethyl)amino)methyl)phenyl)-2-(1H)-pyridinone] | ≤ 10 µM
COc1cccc([C@@H](C)NCc2ccc(OC)c(-c3ccc(=O)n(C)c3)c2)c1 [1-methyl-5-(2-(methyloxy)-5-((((1R)-1-(3-(methyloxy)phenyl)ethyl)amino)methyl)phenyl)-2(1H)-pyridinone] | ≤ 10 µM
COc1ccc(CN[C@H](C)c2ccccc2)cc1-c1ccc(=O)n(C)c1 [1-methyl-5-(2-(methyloxy)-5-((((1R)-1-phenylethyl)amino)methyl)phenyl)-2(1H)-pyridinone] | ≤ 10 µM
COc1ccc(CN[C@H](C)c2cccc3ccccc23)cc1-c1ccc2c(ccn2CC(N)=O)c1 [2-(5-(2-(methyloxy)-5-((((1R)-1-(1-naphthalenyl)ethyl)amino)methyl)phenyl)-1H-indol-1-yl)acetamide] | ≤ 10 µM

Compound | EC50
COc1cccc([C@@H](C)NCc2ccc(OC)c(-c3ccc4c(ccn4CC(N)=O)c3)c2)c1 [2-(5-(2-(methyloxy)-5-((((1R)-1-(3-(methyloxy)phenyl)ethyl)amino)methyl)phenyl)-1H-indol-1-yl)acetamide] | ≤ 10 µM
COc1ccc(CN[C@H](C)c2ccccc2)cc1-c1ccc2c(ccn2CC(N)=O)c1 [2-(5-(2-(methyloxy)-5-((((1R)-1-phenylethyl)amino)methyl)phenyl)-1H-indol-1-yl)acetamide] | ≤ 10 µM
COc1ccc(CN[C@H](C)c2cccc3ccccc23)cc1-c1cccc(C#N)c1 [2′-(methyloxy)-5′-((((1R)-1-(1-naphthalenyl)ethyl)amino)methyl)-1,1′-biphenyl-3-carbonitrile] | ≤ 10 µM
COc1ccc(CN[C@H](C)c2cccc3ccccc23)cc1-c1cccc(C(N)=O)c1 [2′-(methyloxy)-5′-((((1R)-1-(1-naphthalenyl)ethyl)amino)methyl)-1,1′-biphenyl-3-carboxamide] | ≤ 10 µM
COc1ccc(CN[C@H](C)c2cccc3ccccc23)cc1-c1cccc(C(=O)O)c1 [2′-(methyloxy)-5′-((((1R)-1-(1-naphthalenyl)ethyl)amino)methyl)-1,1′-biphenyl-3-carboxylic acid] | ≤ 10 µM
COc1ccc(CN[C@H](C)c2cccc3ccccc23)cc1-c1ccc(C(N)=O)cc1 [2′-(methyloxy)-5′-((((1R)-1-(1-naphthalenyl)ethyl)amino)methyl)-1,1′-biphenyl-4-carboxamide] | ≤ 10 µM
COc1cccc([C@@H](C)NCc2ccc(OC)c(-c3cccc(C#N)c3)c2)c1 [2′-(methyloxy)-5′-((((1R)-1-(3-(methyloxy)phenyl)ethyl)amino)methyl)-1,1′-biphenyl-3-carbonitrile] | ≤ 10 µM
COc1cccc([C@@H](C)NCc2ccc(OC)c(-c3cccc(C(N)=O)c3)c2)c1 [2′-(methyloxy)-5′-((((1R)-1-(3-(methyloxy)phenyl)ethyl)amino)methyl)-1,1′-biphenyl-3-carboxamide] | ≤ 10 µM
COc1cccc([C@@H](C)NCc2ccc(OC)c(-c3cccc(C(=O)O)c3)c2)c1 [2′-(methyloxy)-5′-((((1R)-1-(3-(methyloxy)phenyl)ethyl)amino)methyl)-1,1′-biphenyl-3-carboxylic acid] | ≤ 10 µM
COc1cccc([C@@H](C)NCc2ccc(OC)c(-c3ccc(C(N)=O)cc3)c2)c1 [2′-(methyloxy)-5′-((((1R)-1-(3-(methyloxy)phenyl)ethyl)amino)methyl)-1,1′-biphenyl-4-carboxamide] | ≤ 10 µM
COc1ccc([C@@H](C)NCc2ccc(OC)c(-c3cccc(C#N)c3)c2)cc1 [2′-(methyloxy)-5′-((((1R)-1-(4-(methyloxy)phenyl)ethyl)amino)methyl)-1,1′-biphenyl-3-carbonitrile] | ≤ 10 µM
COc1ccc(CN[C@H](C)c2ccc(C)cc2)cc1-c1cccc(C#N)c1 [2′-(methyloxy)-5′-((((1R)-1-(4-methylphenyl)ethyl)amino)methyl)-1,1′-biphenyl-3-carbonitrile] | ≤ 10 µM
COc1ccc(CN[C@H](C)c2ccccc2)cc1-c1cccc(C#N)c1 [2′-(methyloxy)-5′-((((1R)-1-phenylethyl)amino)methyl)-1,1′-biphenyl-3-carbonitrile] | ≤ 10 µM
COc1ccc(CN[C@H](C)c2ccccc2)cc1-c1cccc(C(N)=O)c1 [2′-(methyloxy)-5′-((((1R)-1-phenylethyl)amino)methyl)-1,1′-biphenyl-3-carboxamide] | ≤ 10 µM
COc1ccc(CN[C@H](C)c2ccccc2)cc1-c1cccc(C(=O)O)c1 [2′-(methyloxy)-5′-((((1R)-1-phenylethyl)amino)methyl)-1,1′-biphenyl-3-carboxylic acid] | ≤ 10 µM
